{"source": "patent US6896914B2", "about": "“Method for normalizing insulin levels” (priority 2001, dated 2005)", "key": {"[1]": {"system": "overweight male human subjects", "assay": "Example 1: double-blind study of enteric coated oral d-mannoheptulose with 1-glutamic acid, serum insulin, glucose and C-peptide", "assay_type": "in vivo", "experimental": "A six-week double-blind study would also determine if combining an amino acid (i.e., 1-glutamic acid) and enteric coating would enhance the bioavailability and efficacy of oral d-mannoheptulose and prevent diarrhea. The amount of amino acid used was 500 mg per dose.\nThirteen healthy male human subjects, aged thirty-seven to fifty-seven, each at least forty pounds overweight, underwent screening blood testing. The Automated Chemistry Profile used included the following measurements: Serum Glucose, BUN, Creatinine, BUN/Creatinine Ratio, Uric Acid, Sodium, Potassium, Chloride, Carbon Dioxide, Calcium, Phosphorous, Total Protein, Albumin, Globulin, A/G Ratio, Total Bilirubin, Alkaline Phosphatase, LDH, AST, ALT, and Iron. A Lipid Profile, and CBC with Differential were also measured. Tests specific to this study included C-Peptide, Serum Insulin, and Hemoglobin A1c.\nSubjects were randomly placed into two groups: “A” (Purple Caps) and “B” (Green Caps). Neither subject nor investigator knew which dosage forms were active and which were placebo. Once a week for three weeks, all subjects came to a local medical office while fasting and, stayed for a period of at least four hours. Blood was drawn from each subject in the fasting state, immediately following a high sugar meal, and at one and three hours after taking 500 mg. of MH. Additionally, fasting blood levels of glucose and insulin were drawn two times a week.\nThe intent was to cross over the patient test groups at the end of three weeks. But, the response of the group receiving active substance was so obvious that any attempt to continue the double-blind methodology in secrecy was pointless. The active compound group not only stabilized their eating patterns, but also experienced considerable weight loss.\nAt the end of the third week, the code was broken, confirming that the subjects with the dramatic response were getting the active oral dosage form. Thereafter, all subjects were given the same active dosage form."}, "mammals including man": {"system": "mammals including man", "settings": "cited from earlier work"}, "[2]": {"system": "overweight hyperinsulinemic male and female subjects", "assay": "Example 2: placebo-controlled crossover study of enteric coated d-manno-heptulose capsules, insulin, glucose, weight", "assay_type": "in vivo, human", "experimental": "All study subjects had serum insulin, blood glucose, and C-peptide levels drawn. The relationship of insulin to glucose was determined by the following formula: Glucose (mg %)×0.41−34=Insulin Thus: 83 mg % glucose×0.41=34.03−34=0.03 or, insulin vanishes from the blood at 83 mg %. Subjects were male and females under the age of 50, who were at least 45 pounds overweight according to the body mass index (BMI). […] Sixteen subjects were given 500 mg of d-manno-heptulose (MH) in enteric coated capsules. Sixteen subjects were given placebo in similar appearing capsules. All subjects received doses four times a day, which were orally ingested in the presence of the investigator. Insulin and glucose levels were drawn one hour after ingesting capsules, two hours afterwards, and four hours afterwards. C-peptide levels were measured once a day. Patients were asked to keep meal logs, recording everything that they ingested by mouth, on a daily basis, for the duration of the study. The subjects and investigators were both blind to the group receiving active medication. At the end of three weeks, the test groups were switched. The group receiving active dosage forms was switched with the group receiving placebo. The initial time period was designed to be three weeks. However, four patients dropped out because they found the schedule too demanding. Nine of the control group patients expressed a desire to quit, and four were allowed to withdraw. The remaining twenty-four subjects completed the six week period."}, "Hexokinase": {"system": "Hexokinase", "settings": "cited from earlier work"}, "obese patients": {"system": "obese patients", "settings": "cited from earlier work"}, "[3]": {"settings": "twelve active medication subjects, first three weeks"}}, "data": [{"smiles": "O=C(CO)[C@@H](O)[C@@H](O)[C@H](O)[C@H](O)CO", "note": "[MH, d-mannoheptulose]", "values": [{"measurement": "weight loss and carbohydrate craving reported by participants", "setting": "[1]; all study participants", "value": "significant weight-loss and reduction in carbohydrate craving"}, {"measurement": "average fasting serum insulin lower than baseline", "setting": "[1]; end of study vs baseline at beginning of study", "value": 26.41, "unit": "%"}, {"measurement": "average reduction in C-peptide levels", "setting": "[1]; end of study vs baseline, two subjects", "value": 43, "unit": "%"}, {"measurement": "fasting serum glucose higher than baseline", "setting": "[1]; end of study vs baseline, called insignificant", "value": 1.52, "unit": "%"}, {"measurement": "lowering elevated serum insulin", "setting": "[1]; enterically coated MH", "value": "effective short-term and long-term"}, {"measurement": "nausea or diarrhea", "setting": "[1]; enterically coated MH", "value": "not one instance of nausea or diarrhea was reported"}, {"measurement": "indications of toxicity", "setting": "[1]; hematological or symptomatic, any subject", "value": "no hematological or symptomatic indications of toxicity"}, {"measurement": "glycemic state of participant hypoglycemic at entry", "setting": "[1]; one study participant", "value": "became normalglycemic"}, {"measurement": "serum insulin lower than baseline fasting insulin", "setting": "[1]; three hours after one dose of MH, same-day glucose challenge, average", "value": 22.4, "unit": "%"}, {"measurement": "average glucose increase", "setting": "[1]; three hours after one dose of MH, same-day glucose challenge, called insignificant", "value": 1.92, "unit": "%"}, {"measurement": "effect on insulin release", "setting": "mammals including man; mammals including man", "value": "lower fasting and glucose stimulated peak insulin release"}, {"measurement": "absorption on oral administration", "setting": "mammals including man; oral", "value": "poor absorption on oral administration"}, {"measurement": "side effects on oral administration", "setting": "mammals including man; oral", "value": "unpleasant side effects (e.g., diarrhea, nausea)"}, {"measurement": "Fasting insulin", "setting": "[2]; after active medication for three days, all subjects of A group", "value": 0}, {"measurement": "time to begin lowering plasma insulin levels", "setting": "[2]; after administration", "value": "two"}, {"measurement": "tolerance for high-sugar foods", "setting": "[2]; all MH recipients while on medication", "value": "diminished tolerance for high-sugar foods"}, {"measurement": "Fasting insulin", "setting": "[2]; control group changed from placebo to MH, middle of second day, after six doses", "value": 0}, {"measurement": "average per day weight loss", "setting": "[2]; control group changed from placebo to MH, over twenty-one days", "value": 2.2, "unit": "lbs."}, {"measurement": "average weight loss after switch to placebo", "setting": "[2]; original twelve active patients", "value": 0.7, "unit": "lbs. per day"}, {"measurement": "duration of insulin suppressing action after switch to placebo", "setting": "[2]; original twelve active patients, on average", "value": "eleven"}, {"measurement": "Average weight loss", "setting": "[2]; [3]", "value": 1.6, "unit": "lbs. per day per subject"}, {"measurement": "greatest weight loss", "setting": "[2]; [3]", "value": 1.9, "unit": "lbs. per day"}, {"measurement": "lowest weight loss", "setting": "[2]; [3]", "value": 1.2, "unit": "lbs. per day"}, {"measurement": "average decrease of insulin levels", "setting": "[2]; two hours after administration of MH, A group, twelve subjects", "value": 81, "unit": "%"}, {"measurement": "inhibition of hexokinase", "setting": "Hexokinase", "value": "inhibits hexokinase in a predominantly competitive manner"}]}, {"smiles": "CC1=NS(=O)(=O)c2cc(Cl)ccc2N1", "note": "[diazoxide]", "values": [{"measurement": "effect on blood pressure", "setting": "obese patients", "value": "drops blood pressure dangerously"}, {"measurement": "effect on insulin levels", "setting": "obese patients", "value": "lowers insulin levels"}]}]}
